The target in assay [1] is T1, SIRT2 (Homo sapiens, UniProt Q8IXJ6).
T1 sequence (Q8IXJ6 1-389): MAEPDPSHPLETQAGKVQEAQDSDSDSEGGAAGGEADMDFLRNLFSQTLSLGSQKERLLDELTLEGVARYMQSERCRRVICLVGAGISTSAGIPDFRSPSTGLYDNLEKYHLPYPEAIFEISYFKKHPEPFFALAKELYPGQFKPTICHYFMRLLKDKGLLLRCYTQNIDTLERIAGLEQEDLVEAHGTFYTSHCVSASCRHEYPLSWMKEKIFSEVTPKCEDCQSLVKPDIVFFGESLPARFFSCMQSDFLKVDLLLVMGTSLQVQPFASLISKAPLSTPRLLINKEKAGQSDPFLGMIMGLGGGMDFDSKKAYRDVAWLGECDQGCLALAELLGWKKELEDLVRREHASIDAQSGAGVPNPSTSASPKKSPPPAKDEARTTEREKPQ
The assay is described as follows: Fluorescence thermal shift assay of SIRT2.
Description: The thermal stability of SIRT2 was determined in the presence of 10 μM and 30 μM inhibitor and in the presence and absence of 2.5 mM co-factor NAD^+.
All melting temperature shifts measured were referenced to the melting temperature of SIRT2 without inhibitor, also in the presence and absence of the co-factor.
Fluorescence thermal shift assays were performed in white 96-well plates (Hard-Shell PCR Plates, BioRad, USA) with a total volume of 20 μL per well and a final DMSO concentration of 5% (v/v), following a published protocol.[19,21] […] The compounds were prepared as 10 mM stock solutions in DMSO and diluted in the assay such that a final DMSO concentration of 5% (v/v) was achieved. If necessary, NAD^+ was added to a final concentration of 2.5 mM. […] Melting temperatures were determined using GraphPad Prism, following a published procedure.[52]

The next assay concerns the target T2, human SIRT3 (Homo sapiens, UniProt Q9NTG7).
T2 construct: purchased Reaction Biology Corporation (Malvern, USA), contract assay
T2 sequence (Q9NTG7 1-399): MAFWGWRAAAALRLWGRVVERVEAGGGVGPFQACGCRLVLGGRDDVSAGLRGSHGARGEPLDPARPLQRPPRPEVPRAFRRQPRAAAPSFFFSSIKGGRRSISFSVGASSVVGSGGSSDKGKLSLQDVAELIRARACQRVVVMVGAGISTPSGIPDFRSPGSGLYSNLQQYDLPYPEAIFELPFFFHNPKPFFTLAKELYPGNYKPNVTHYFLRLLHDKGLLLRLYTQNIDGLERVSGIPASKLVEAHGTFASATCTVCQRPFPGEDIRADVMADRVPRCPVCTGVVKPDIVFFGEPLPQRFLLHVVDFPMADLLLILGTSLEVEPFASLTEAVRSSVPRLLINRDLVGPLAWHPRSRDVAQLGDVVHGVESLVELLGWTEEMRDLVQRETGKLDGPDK
In words: Fluorescence-based sirtuin subtype selectivity assay, SIRT3, single dose 50 μM. Format: biochemical. Particulars: 50 μM compound; mean, n = 2. As to the method: (§1) IC50 values against SIRT2 are given as mean with standard deviations (n = 3). Inhibition percentages at 50 μM for SIRT1, 3 and 5 are given as mean without standard deviations (n = 2)
(§2) The determination of subtype selectivity against SIRT1, 3 and 5 was performed by measuring the residual enzyme activity after treatment with the corresponding inhibitor at a fixed concentration of 50 μM and subsequent calculation of the percentage inhibition.
(§3) The determination of inhibitory activity on the corresponding sirtuin enzymes was carried out based on a fluorescence-based assay commissioned by Reaction Biology Corporation (Malvern, USA) following an internal experimental protocol. Test substances were prepared in DMSO, delivered into the respective enzyme mixture (prepared with reaction buffer: Tris-HCl, pH = 8) and incubated for 10 minutes at 30 °C. Subsequently the substrate mixture (NAD^+ and a 7-amino-4-methylcoumarin-based fluorogenic peptide substrate) was added to initiate the deacetylation reaction. After 2 hours incubation at 30 °C, 2 mM nicotinamide (universal sirtuin inhibitor, to stop the reaction) and protease-based developer (to generate fluorescence by the cleavage of 7-amino-4-methylcoumarin) was added. At 30 °C 1 hour later, the respective fluorescence was measured (extinction/emission = 360 nm/460 nm). The inhibitory effect of the test compounds is indirectly proportional to the amount of converted fluorescent substrate standardized as 100% activity of the control without inhibitor. The test substances were tested in 10-dose IC50 triplicate mode, with 3-fold serial dilution starting at 50 μM final reaction concentration and if necessary, starting at 100 μM. For each serially diluted replicate of the triplicate, an IC50 value was determined by sigmoidal curve fitting, resulting in three IC50 values, from which the mean and corresponding standard deviation were subsequently calculated. Data processing was performed based on Prism 8.0.2 software (GraphPad Software, Boston, USA). Subtype selectivity on SIRT1, SIRT3 and SIRT5 was evaluated in a single dose duplicate mode at 50 μM final test compound concentration according to previous outlined internal protocol of Reaction Biology Corporation by determining the enzyme activity of the respective sirtuins in % (no inhibitor control as 100% activity).

In assay [2] the target is T1, SIRT2. In words: Fluorescence-based SIRT2 deacetylation inhibition assay (Reaction Biology Corporation). Also on record: purchased Reaction Biology Corporation (Malvern, USA), contract assay. Format: biochemical. As to the method:
The determination of SIRT2 inhibitory activity was performed by Reaction Biology Corporation (Malvern, USA) with a fluorescence-based assay utilizing the fluorogenic peptide of p53 residues 379–382 (RHKK(Ac)-Fl). […]. […] […]. On the contrary, we observed a significant increase in potency by the introduction of halogens at the R^2 position (compounds 29–31), highlighting the importance of the position of the functional group modifications. […]. […] Additional factors such as the atomic radius and thus steric requirements of these halogens may also play a significant role in the increase in potency, where the smaller chlorine atom may experience less steric effects upon binding at the active site compared to the larger bromine and iodine atoms. […]. […] IC50 values against SIRT2 are given as mean with standard deviations (n = 3). Inhibition percentages at 50 μM for SIRT1, 3 and 5 are given as mean without standard deviations (n = 2)
as §3

Another assay deals with T3, human SIRT1 (Homo sapiens, UniProt Q96EB6).
T3 construct: purchased Reaction Biology Corporation (Malvern, USA), contract assay
T3 sequence (Q96EB6 1-747): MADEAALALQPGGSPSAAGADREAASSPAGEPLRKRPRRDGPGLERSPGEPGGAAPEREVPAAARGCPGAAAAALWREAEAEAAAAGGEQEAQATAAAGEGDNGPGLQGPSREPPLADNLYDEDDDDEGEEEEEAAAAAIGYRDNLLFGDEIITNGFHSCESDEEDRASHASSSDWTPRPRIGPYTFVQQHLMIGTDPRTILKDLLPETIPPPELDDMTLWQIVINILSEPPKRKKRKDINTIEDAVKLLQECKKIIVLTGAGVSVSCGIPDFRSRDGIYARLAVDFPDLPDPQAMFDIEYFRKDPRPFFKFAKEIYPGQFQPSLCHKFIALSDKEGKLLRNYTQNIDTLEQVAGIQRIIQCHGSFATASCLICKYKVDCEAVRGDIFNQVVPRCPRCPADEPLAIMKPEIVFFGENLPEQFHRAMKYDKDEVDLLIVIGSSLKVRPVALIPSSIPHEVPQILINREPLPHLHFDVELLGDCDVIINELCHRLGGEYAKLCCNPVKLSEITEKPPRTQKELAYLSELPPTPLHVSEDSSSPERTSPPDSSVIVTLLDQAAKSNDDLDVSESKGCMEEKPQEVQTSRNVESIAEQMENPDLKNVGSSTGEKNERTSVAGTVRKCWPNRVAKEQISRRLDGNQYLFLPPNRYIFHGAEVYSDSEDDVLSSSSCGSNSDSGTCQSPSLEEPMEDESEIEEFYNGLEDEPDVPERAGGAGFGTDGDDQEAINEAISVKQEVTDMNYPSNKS
The assay is described as follows: Fluorescence-based sirtuin subtype selectivity assay, SIRT1, single dose 50 μM. Particulars: 50 μM compound; mean, n = 2. Format: biochemical. On the procedure: as §1, §2, §3

With `Cc1cc(C)nc(SCC(=O)Nc2cccc(COc3ccc(NC(=O)c4cnn(C)c4)c(Cl)c3)c2)n1` [Compound 29, N-(2-Chloro-4-((3-(2-((4,6-dimethylpyrimidin-2-yl)thio)acetamido)benzyl)oxy)phenyl)-1-methyl-1H-pyrazole-4-carboxamide], the “NAD+ dependency of inhibitor-induced SIRT2 melting temperature increase” value at SIRT2 [1] (presence and absence of 2.5 mM NAD+) was “increases the melting temperature of SIRT2 independently of NAD^+”. Further, the ΔTm at 30 µM on SIRT2 [1] (read-out: ΔT, increase in the melting temperature of SIRT2) was found to be 6.5 °C. In addition, the inhibition (usually the percentage by which the read-out fell short of the control) at 50 µM on human SIRT3 is 26%; at human SIRT1 it was 12%. Besides, at SIRT2 [2] (29 vs 24a, 46 vs SirReal2), the “Fold increase in SIRT2 potency compared to lead structure” value came to 3 fold. In addition, the half-maximal inhibitory concentration (IC50) – broadly, the midpoint of a concentration-inhibition curve – against SIRT2 [2] (fluorogenic peptide of p53 residues 379–382 (RHKK(Ac)-Fl), mean with standard deviation, n = 3) was 26 ± 2 nM.

(Values after paper PMC12412615, “Tailored SirReal-type inhibitors enhance SIRT2 inhibition through ligand stabilization and disruption of NAD^+ co-factor binding” (RSC Medicinal Chemistry, 2025).)
